Measured values as given in PubChem BioAssay AID449736 (Sanford-Burnham Center for Chemical Genomics, 2010).

Biological target: Tyrosine-protein phosphatase non-receptor type 7 (Homo sapiens) (UniProt P35236)
Test: HePTP (PTPN7) phosphatase inhibitor potency, SAR follow-up, biochemical, set 2 (AID 449736)
Conditions: recombinant HePTP phosphatase activity, inhibition

Sequence of Tyrosine-protein phosphatase non-receptor type 7 (Homo sapiens) (P35236 whole entry, looked up): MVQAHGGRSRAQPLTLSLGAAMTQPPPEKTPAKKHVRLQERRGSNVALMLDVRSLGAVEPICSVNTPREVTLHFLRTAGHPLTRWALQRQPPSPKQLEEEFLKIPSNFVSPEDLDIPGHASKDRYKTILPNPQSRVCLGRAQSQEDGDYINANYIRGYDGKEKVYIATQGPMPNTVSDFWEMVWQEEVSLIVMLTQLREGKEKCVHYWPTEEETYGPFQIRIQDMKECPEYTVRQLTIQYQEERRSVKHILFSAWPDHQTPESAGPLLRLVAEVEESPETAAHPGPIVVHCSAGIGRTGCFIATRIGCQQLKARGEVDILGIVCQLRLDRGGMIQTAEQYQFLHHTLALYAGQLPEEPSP

IC50: 3.61 µM
SMILES: COc1cc(/C=C2\SC(=O)N(CC(=O)Nc3cccc(C)c3)C2=O)cc(Cl)c1OCC(=O)O
